The values below come from patent publication US9096591B2, “Tetracyclic compounds” (Medivation Technologies, Inc., priority 2007, dated 2015).

Assay [1] has as its target T1, human recombinant adrenergic α2B receptor (Homo sapiens, UniProt P18089).
T1 construct: expressed in transfected cells; host or cells: CHO-K1 cells
T1 sequence (P18089 1-450): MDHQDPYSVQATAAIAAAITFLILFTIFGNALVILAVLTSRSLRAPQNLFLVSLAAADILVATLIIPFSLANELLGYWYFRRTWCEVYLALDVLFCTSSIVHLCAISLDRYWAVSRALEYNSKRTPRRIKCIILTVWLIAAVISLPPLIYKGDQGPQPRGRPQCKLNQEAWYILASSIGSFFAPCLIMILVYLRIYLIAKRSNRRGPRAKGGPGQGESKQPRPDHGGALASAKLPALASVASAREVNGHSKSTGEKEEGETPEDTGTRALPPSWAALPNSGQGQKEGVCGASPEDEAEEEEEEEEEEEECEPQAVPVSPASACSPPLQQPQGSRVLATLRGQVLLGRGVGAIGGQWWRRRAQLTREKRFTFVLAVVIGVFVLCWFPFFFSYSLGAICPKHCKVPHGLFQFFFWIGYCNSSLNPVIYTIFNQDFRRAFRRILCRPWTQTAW
Kind of assay: Adrenergic α2B radioligand binding ([3H]Rauwolscine). The note with it: percent inhibition of specific binding. Also on record: Inhibition of ligand binding, Adren. alpha2B: concentration or dose not given beside the values. In a few lines:
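Membranes from CHO-K1 cells expressing the receptor, in 50 mM Tris-HCl pH 7.4 with 12.5 mM MgCl2, 1 mM EDTA, 0.2% BSA, incubated with compounds and 2.5 nM [3H]Rauwolscine for 60 minutes at 25 °C.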

The target in assay [2] is T2, human recombinant serotonin (5-Hydroxytryptamine) 5-HT2C receptor (Homo sapiens, UniProt P28335).
T2 construct: expressed in transfected cells; host or cells: CHO-K1 cells
T2 sequence (P28335 33-458): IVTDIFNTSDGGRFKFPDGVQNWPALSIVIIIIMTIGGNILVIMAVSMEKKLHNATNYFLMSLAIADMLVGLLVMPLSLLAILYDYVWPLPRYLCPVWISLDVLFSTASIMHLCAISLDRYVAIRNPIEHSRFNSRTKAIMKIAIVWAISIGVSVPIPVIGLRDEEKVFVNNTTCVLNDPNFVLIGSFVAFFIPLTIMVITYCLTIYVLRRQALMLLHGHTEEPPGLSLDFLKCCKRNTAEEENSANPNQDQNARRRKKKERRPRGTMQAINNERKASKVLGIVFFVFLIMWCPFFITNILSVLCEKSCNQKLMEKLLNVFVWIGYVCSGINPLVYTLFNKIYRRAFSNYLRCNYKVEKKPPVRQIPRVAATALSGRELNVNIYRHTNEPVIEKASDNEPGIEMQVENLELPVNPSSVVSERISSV
Kind of assay: Serotonin 5-HT2C radioligand binding ([3H]Mesulergine). Also on record: Inhibition of ligand binding, Ser. 5-HT2C: concentration or dose not given beside the values. The note with it: percent inhibition of specific binding. As for the experimental part: Compounds of the invention were incubated with 1 nM [^3H]Mesulergine for 60 minutes at 25° C. Non-specific binding was estimated in the presence of 1 μM Mianserin. Receptor proteins were filtered and washed, the filters were then counted to determine [^3H]Mesulergine specifically bound. […] Biochemical assay results are presented as the percent inhibition of specific binding in Table 6.

The target in assay [3] is T3, human recombinant serotonin (5-Hydroxytryptamine) 5-HT6 receptor (Homo sapiens, UniProt P50406).
T3 construct: expressed in transfected cells; host or cells: human HeLa cells
T3 sequence (P50406 whole entry): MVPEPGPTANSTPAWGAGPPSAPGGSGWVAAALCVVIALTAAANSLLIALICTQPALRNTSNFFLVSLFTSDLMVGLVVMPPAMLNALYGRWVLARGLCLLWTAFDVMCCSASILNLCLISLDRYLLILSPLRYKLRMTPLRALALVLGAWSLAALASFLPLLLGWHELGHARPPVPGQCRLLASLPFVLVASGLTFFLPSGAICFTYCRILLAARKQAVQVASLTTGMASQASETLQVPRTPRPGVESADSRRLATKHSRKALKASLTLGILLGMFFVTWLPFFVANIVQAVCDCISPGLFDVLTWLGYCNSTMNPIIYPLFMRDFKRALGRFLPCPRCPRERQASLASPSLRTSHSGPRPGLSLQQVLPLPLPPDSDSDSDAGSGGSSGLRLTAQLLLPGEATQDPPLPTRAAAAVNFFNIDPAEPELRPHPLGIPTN
Kind of assay: Serotonin 5-HT6 radioligand binding ([3H]LSD). Also on record: Inhibition of ligand binding, Ser. 5-HT6: concentration or dose not given beside the values. The note with it: percent inhibition of specific binding. The source says: Receptor proteins were filtered and washed, the filters were then counted to determine [3H]LSD specifically bound. […] Biochemical assay results are presented as the percent inhibition of specific binding in Table 6.

Assay [4] concerns the target T4, human recombinant histamine H1 receptor (Homo sapiens, UniProt P35367).
T4 construct: expressed in transfected cells; host or cells: CHO cells
Description: Histamine H1 radioligand binding ([3H]Pyrilamine). The settings on record: percent inhibition of specific binding; screened at 1 μM; read-out: Inhibition of ligand binding, Hist. H1. In short, it runs like this:
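Receptor expressed in CHO cells, assayed in 50 mM Tris-HCl pH 7.4 with 2 mM MgCl2, 100 mM NaCl, 250 mM sucrose. Compounds tested at 1 μM in 1% DMSO; non-specific binding set with 1 μM pyrilamine. Filter-bound radioactivity counted; values are percent inhibition of specific binding.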

T4 sequence (P35367 whole entry): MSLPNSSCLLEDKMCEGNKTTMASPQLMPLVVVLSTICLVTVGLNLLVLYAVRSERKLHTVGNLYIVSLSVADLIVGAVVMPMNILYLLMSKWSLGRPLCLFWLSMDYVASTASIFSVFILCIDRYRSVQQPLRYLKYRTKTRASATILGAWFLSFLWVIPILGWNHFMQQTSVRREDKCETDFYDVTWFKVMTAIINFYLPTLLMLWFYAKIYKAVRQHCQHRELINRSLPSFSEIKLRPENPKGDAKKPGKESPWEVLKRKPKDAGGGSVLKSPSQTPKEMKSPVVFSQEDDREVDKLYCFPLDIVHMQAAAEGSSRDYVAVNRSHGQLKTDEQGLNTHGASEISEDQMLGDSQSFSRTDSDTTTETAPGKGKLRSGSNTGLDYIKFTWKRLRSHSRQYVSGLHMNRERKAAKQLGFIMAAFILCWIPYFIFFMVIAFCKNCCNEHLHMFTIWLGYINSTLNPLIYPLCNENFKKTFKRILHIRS

As for `Cc1cccc2c3c(n(CCc4ccc(C(F)(F)F)nc4)c12)CCN(C)C3` [Compound 380, 5-(2-(6-(trifluoromethyl)pyridin-3-yl)ethyl)-2,3,4,5-tetrahydro-2,6-dimethyl-1H-pyrido[4,3-b]indole], the “Inhibition of ligand binding, Adren. alpha2B” value (“Inhibition … Adren. alpha2B” below) in assay [1] came to 103%. Also, in assay [2], the “Inhibition of ligand binding, Ser. 5-HT2C” value (“Inhibition … Ser. 5-HT2C” for short) was determined as 70%. Moreover, the “Inhibition of ligand binding, Ser. 5-HT6” value in assay [3] came out at 39%. In assay [4], the inhibition (as a rule, the drop in the measured response relative to a control, in per cent) at 1 µM was 68%.
The corresponding values for `Cc1ccc2c(c1)c1c(n2CCc2cncnc2)CCN(C)C1` [Compound 387, 2,8-Dimethyl-5-(2-pyrimidin-5-yl-ethyl)-2,3,4,5-tetrahydro-1H-pyrido[4,3-b]indole] are 95%, 76%, 79% and 97%.
The corresponding values for `Cc1ccc(CCn2c3c(c4cc(C(C)C)ccc42)CN(C)CC3)cn1` [Compound 392, 8-Isopropyl-2-methyl-5-[2-(6-methyl-pyridin-3-yl)-ethyl]-2,3,4,5-tetrahydro-1H-pyrido[4,3-b]indole] are 109%, 82%, 61% and 98%.
For `Cc1ccc2c(c1)c1c(n2CCC(=O)N2CCC(NC(=O)OC(C)(C)C)CC2)CCN(C)C1` [Compound 393, tert-butyl 1-(3-(1,2,3,4-tetrahydro-2,8-dimethylpyrido[4,3-b]indol-5-yl)propanoyl)piperidin-4-ylcarbamate], the “Inhibition … Adren. alpha2B” value in assay [1] is reported as 28%. In addition, the “Inhibition … Ser. 5-HT2C” value in assay [2] is given as 26%. For the same molecule, in assay [3], the “Inhibition of ligand binding, Ser. 5-HT6” value was 3%. Further, the inhibition at 1 µM in assay [4] was 28%.
For `Cc1ccc2c(c1)c1c(n2CCc2ccc(C)[n+]([O-])c2)CCN(C)C1` [Compound 394, 5-(2-(2,8-dimethyl-3,4-dihydro-1H-pyrido[4,3-b]indol-5(2H)-yl)ethyl)-2-methylpyridine 1-oxide], the “Inhibition … Adren. alpha2B” value in assay [1] worked out at 19%. In addition, the “Inhibition … Ser. 5-HT2C” value in assay [2] is recorded as −8%. In assay [3], the “Inhibition of ligand binding, Ser. 5-HT6” value amounted to 5%. In assay [4], the inhibition at 1 µM stood at 30%.
The corresponding values for `Cc1ccc2c(c1)c1c(n2CC(=O)N2CCCCC2)CCN(C)C1` [Compound 395, 2-(1,2,3,4-tetrahydro-2,8-dimethylpyrido[4,3-b]indol-5-yl)-1-(piperidin-1-yl)ethanone] are 2%, 50%, 0% and 20%.
Turning to `Cc1ccc2c(c1)c1c(n2CC(=O)N2Cc3ccccc3C2)CCN(C)C1` [Compound 397, 2-(1,2,3,4-tetrahydro-2,8-dimethylpyrido[4,3-b]indol-5-yl)-1-(isoindolin-2-yl)ethanone], the “Inhibition … Adren. alpha2B” value in assay [1] is listed as 40%. The “Inhibition … Ser. 5-HT2C” value in assay [2] worked out at 44%. In addition, in assay [3], the “Inhibition of ligand binding, Ser. 5-HT6” value was −9%. The inhibition at 1 µM in assay [4] was found to be 77%.
Turning to `Cc1ccc2c(c1)c1c(n2CC(=O)N2CCc3ccccc3C2)CCN(C)C1` [Compound 398, 2-(1,2,3,4-tetrahydro-2,8-dimethylpyrido[4,3-b]indol-5-yl)-1-(3,4-dihydroisoquinolin-2(1H)-yl)ethanone], the “Inhibition … Adren. alpha2B” value in assay [1] turned out to be 50%. The “Inhibition … Ser. 5-HT2C” value in assay [2] is on record as 69%. Further, in assay [3], the “Inhibition of ligand binding, Ser. 5-HT6” value is 15%. In assay [4], the inhibition at 1 µM is 76%.
Consider `Cc1ccc2c(c1)c1c(n2CC(=O)N2CCSCC2)CCN(C)C1` [Compound 399, 2-(1,2,3,4-tetrahydro-2,8-dimethylpyrido[4,3-b]indol-5-yl)-1-thiomorpholinoethanone], for which the “Inhibition … Adren. alpha2B” value in assay [1] came out at 11%. The “Inhibition … Ser. 5-HT2C” value in assay [2] stood at 73%. Also, the “Inhibition of ligand binding, Ser. 5-HT6” value in assay [3] is −5%. The inhibition at 1 µM in assay [4] amounted to 42%.
The corresponding values for `Cc1ccc2c(c1)c1c(n2CC(=O)N2CCCC(C)C2)CCN(C)C1` (stereo not shown) [Compound 401, 2-(1,2,3,4-tetrahydro-2,8-dimethylpyrido[4,3-b]indol-5-yl)-1-(3-methylpiperidin-1-yl)ethanone] are 3%, 39%, 1% and 36%.
The corresponding values for `Cc1ccc(CCn2c3c(c4cc(Cl)ccc42)CN(c2cccc(C(F)(F)F)c2)CC3)cn1` [Compound 403, 8-Chloro-5-[2-(6-methyl-pyridin-3-yl)-ethyl]-2-(3-trifluoromethyl-phenyl)-2,3,4,5-tetrahydro-1H-pyrido[4,3-b]indole] are 46%, 35%, 0% and 54%.
The corresponding values for `Cc1ccc(CCn2c3c(c4cc(Cl)c(F)cc42)CN(C)CC3)cn1` [Compound 404, 8-Chloro-7-fluoro-2-methyl-5-[2-(6-methyl-pyridin-3-yl)-ethyl]-2,3,4,5-tetrahydro-1H-pyrido[4,3-b]indole] are 95%, 78%, 94% and 102%.
In the case of `CN1CCN(CCn2c3c(c4cc(Cl)ccc42)CN(C)CC3)CC1` [Compound 417, 8-chloro-2,3,4,5-tetrahydro-2-methyl-5-(2-(4-methylpiperazin-1-yl)ethyl)-1H-pyrido[4,3-b]indole], the “Inhibition … Adren. alpha2B” value in assay [1] was −1%. The “Inhibition … Ser. 5-HT2C” value in assay [2] is listed as 29%. In assay [3], the “Inhibition of ligand binding, Ser. 5-HT6” value is on record as 5%. For the same molecule, the inhibition at 1 µM in assay [4] came to 10%.
Regarding `CN1CCc2c(c3cc(Cl)ccc3n2CCc2cncnc2)C1` [Compound 424, 8-Chloro-2-methyl-5-(2-pyrimidin-5-yl-ethyl)-2,3,4,5-tetrahydro-1H-pyrido[4,3-b]indole], the “Inhibition … Adren. alpha2B” value in assay [1] came out at 94%. Besides, in assay [2], the “Inhibition … Ser. 5-HT2C” value is 76%. In addition, the “Inhibition of ligand binding, Ser. 5-HT6” value in assay [3] is reported as 82%. In addition, in assay [4], the inhibition at 1 µM is 104%.
The corresponding values for `Cc1ccc2c(c1)c1c(n2CCc2cncc(C(F)(F)F)c2)CCN(C)C1` [Compound 425, 5-(2-(5-(trifluoromethyl)pyridin-3-yl)ethyl)-2,3,4,5-tetrahydro-2,8-dimethyl-1H-pyrido[4,3-b]indole] are 99%, 72%, 64% and 100%.
With `CN1CCc2c(c3cc(Cl)ccc3n2CCc2cncc(C(F)(F)F)c2)C1` [Compound 426, 8-chloro-5-(2-(5-(trifluoromethyl)pyridin-3-yl)ethyl)-2,3,4,5-tetrahydro-2-methyl-1H-pyrido[4,3-b]indole], the “Inhibition … Adren. alpha2B” value in assay [1] amounted to 98%. In addition, the “Inhibition … Ser. 5-HT2C” value in assay [2] is recorded as 80%. In assay [3], the “Inhibition of ligand binding, Ser. 5-HT6” value is given as 65%. Further, the inhibition at 1 µM in assay [4] was 99%.
